Each structure is given as a SMILES string.

What all share (assay): Kinase selectivity, scanMAX Kinase assay panel (DiscoverX), % control at 1 uM
Common to all, as to format: binding

Test [1] deals with T1, scanMAX Kinase assay panel (Homo sapiens, UniProt P22607, G697C).
T1 construct: purchased DiscoverX
The following applies: FGFR3 (G697C); 1 uM; read-out: Percent Control (%). An outline of the steps:
(§1)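 Each kinase was first exposed to the test compound at 1 uM in DMSO. Signal was then normalised to positive and negative controls to give % control. Finally, any enzyme showing <35% control was judged inhibited.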

Test [2] has as its target T2, scanMAX Kinase assay panel (Homo sapiens, UniProt O95819).
T2 construct: purchased DiscoverX
The note with it: MAP4K4; 1 uM; read-out: Percent Control (%). An outline of the steps:
as §1

The target in test [3] is T3, scanMAX Kinase assay panel (Homo sapiens, UniProt Q8NG66).
T3 construct: purchased DiscoverX
T3 sequence (Q8NG66 1-645): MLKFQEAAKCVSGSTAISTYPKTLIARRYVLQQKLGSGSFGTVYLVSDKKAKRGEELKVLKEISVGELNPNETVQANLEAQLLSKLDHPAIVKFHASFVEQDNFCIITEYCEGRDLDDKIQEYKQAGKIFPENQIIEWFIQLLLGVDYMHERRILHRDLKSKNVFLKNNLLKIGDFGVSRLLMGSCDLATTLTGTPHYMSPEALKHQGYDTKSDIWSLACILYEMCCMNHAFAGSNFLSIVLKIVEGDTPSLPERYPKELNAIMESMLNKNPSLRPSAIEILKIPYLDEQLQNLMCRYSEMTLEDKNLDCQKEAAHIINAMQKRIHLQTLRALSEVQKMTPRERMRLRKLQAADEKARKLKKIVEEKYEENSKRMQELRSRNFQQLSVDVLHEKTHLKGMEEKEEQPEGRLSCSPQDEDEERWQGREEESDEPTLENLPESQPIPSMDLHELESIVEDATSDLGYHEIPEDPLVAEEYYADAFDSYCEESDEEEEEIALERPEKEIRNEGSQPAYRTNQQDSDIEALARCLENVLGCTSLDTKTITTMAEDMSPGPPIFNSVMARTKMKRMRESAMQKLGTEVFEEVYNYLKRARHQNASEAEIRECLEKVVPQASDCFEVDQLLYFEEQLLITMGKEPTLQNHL
The note with it: NEK11; 1 uM; read-out: Percent Control (%). An outline of the steps: as §1

The target in test [4] is T4, scanMAX Kinase assay panel (Homo sapiens, UniProt Q9Y2H1).
T4 construct: purchased DiscoverX
The following applies: NDR2; 1 uM; read-out: Percent Control (%). The method in brief: as §1

Test [5] addresses T5, scanMAX Kinase assay panel (Homo sapiens, UniProt Q15208).
T5 construct: purchased DiscoverX
The following applies: NDR1; 1 uM; read-out: Percent Control (%). The method in brief:
as §1

Test [6] deals with T6, scanMAX Kinase assay panel (Homo sapiens, UniProt Q05397).
T6 construct: purchased DiscoverX
The note with it: FAK; 1 uM; read-out: Percent Control (%). The method in brief: as §1

The target of test [7] is T7, scanMAX Kinase assay panel (Homo sapiens, UniProt Q13188).
T7 construct: purchased DiscoverX
T7 sequence (Q13188 1-491): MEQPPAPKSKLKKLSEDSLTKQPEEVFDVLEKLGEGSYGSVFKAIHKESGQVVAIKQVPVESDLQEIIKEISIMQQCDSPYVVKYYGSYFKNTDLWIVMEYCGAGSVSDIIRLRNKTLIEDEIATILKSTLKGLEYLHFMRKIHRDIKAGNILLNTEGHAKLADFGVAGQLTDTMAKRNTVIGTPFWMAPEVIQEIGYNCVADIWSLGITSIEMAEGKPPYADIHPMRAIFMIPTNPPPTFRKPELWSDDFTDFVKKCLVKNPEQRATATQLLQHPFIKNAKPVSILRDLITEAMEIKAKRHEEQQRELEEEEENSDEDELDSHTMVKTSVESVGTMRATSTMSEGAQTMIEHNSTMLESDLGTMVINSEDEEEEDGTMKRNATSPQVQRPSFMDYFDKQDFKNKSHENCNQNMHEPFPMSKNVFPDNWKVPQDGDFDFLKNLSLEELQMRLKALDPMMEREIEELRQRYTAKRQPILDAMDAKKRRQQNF
The following applies: MST2; 1 uM; read-out: Percent Control (%). The method in brief:
as §1

For test [8], the target named is T8, scanMAX Kinase assay panel (Homo sapiens, UniProt Q16566).
T8 construct: purchased DiscoverX
T8 sequence (Q16566 1-473): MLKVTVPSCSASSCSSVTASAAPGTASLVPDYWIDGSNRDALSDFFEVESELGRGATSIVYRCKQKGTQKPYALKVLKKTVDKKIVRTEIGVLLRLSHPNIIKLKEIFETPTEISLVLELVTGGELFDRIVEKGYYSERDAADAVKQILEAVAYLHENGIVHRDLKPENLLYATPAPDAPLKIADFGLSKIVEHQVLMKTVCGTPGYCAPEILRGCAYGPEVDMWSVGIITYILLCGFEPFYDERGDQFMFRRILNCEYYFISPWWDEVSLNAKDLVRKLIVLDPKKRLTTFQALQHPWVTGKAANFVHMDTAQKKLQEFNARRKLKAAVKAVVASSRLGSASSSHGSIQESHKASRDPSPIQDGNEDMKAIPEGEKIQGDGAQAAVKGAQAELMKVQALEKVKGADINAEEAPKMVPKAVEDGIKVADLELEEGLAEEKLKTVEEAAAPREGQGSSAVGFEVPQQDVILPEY
The note with it: CAMK4; 1 uM; read-out: Percent Control (%). An outline of the steps: as §1

T1 sequence (P22607 23-806 G697C): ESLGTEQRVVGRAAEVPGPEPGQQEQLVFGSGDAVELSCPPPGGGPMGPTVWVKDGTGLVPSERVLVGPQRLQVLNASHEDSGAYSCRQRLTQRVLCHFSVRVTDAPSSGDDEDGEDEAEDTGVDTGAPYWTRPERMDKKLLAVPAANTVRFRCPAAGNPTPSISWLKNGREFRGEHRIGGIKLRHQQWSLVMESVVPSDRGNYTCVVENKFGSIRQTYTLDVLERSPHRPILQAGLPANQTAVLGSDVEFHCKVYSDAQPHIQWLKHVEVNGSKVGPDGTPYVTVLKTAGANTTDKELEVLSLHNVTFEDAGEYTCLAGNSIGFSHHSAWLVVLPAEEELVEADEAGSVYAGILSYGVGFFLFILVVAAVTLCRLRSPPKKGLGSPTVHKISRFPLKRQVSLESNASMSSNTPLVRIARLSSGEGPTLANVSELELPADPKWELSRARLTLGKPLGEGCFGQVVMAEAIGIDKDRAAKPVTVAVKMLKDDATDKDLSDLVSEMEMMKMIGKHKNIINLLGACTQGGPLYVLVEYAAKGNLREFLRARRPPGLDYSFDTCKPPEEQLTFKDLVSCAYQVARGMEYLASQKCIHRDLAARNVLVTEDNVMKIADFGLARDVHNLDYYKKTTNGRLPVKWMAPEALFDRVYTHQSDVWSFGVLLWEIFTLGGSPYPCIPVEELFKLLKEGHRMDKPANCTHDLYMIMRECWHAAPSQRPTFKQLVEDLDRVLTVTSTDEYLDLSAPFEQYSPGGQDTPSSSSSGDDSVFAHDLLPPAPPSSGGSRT
T2 sequence (O95819 whole entry): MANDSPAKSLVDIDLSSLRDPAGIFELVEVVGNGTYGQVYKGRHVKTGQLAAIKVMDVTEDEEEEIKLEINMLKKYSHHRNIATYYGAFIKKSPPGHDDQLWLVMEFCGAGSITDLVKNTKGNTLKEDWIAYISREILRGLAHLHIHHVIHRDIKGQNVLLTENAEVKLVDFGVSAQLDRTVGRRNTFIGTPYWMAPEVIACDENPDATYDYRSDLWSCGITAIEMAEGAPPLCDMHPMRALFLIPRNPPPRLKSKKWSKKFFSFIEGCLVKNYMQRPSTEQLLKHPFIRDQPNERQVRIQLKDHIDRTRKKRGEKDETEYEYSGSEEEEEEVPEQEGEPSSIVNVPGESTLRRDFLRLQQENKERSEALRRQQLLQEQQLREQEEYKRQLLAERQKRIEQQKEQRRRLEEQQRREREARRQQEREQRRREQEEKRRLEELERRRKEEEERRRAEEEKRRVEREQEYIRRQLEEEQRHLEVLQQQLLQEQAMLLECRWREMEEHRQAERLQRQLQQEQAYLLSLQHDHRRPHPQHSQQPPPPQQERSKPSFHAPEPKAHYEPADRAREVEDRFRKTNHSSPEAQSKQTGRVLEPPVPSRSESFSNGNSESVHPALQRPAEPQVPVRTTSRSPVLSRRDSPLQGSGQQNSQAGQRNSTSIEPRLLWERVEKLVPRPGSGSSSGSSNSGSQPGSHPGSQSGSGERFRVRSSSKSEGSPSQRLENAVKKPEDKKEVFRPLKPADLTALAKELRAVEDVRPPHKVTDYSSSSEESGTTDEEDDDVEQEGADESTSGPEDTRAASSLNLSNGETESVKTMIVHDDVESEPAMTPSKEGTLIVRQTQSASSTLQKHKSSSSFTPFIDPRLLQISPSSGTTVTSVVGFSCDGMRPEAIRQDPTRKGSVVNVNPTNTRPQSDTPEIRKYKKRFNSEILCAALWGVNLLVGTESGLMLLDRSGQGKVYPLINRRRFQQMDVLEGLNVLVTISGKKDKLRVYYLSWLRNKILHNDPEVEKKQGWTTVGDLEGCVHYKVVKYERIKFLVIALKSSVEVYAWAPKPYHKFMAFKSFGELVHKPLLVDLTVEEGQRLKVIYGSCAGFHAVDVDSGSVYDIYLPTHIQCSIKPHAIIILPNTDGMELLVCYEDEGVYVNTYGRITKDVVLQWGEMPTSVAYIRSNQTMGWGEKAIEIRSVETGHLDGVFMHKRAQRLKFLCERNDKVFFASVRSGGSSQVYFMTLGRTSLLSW
T6 sequence (Q05397 whole entry): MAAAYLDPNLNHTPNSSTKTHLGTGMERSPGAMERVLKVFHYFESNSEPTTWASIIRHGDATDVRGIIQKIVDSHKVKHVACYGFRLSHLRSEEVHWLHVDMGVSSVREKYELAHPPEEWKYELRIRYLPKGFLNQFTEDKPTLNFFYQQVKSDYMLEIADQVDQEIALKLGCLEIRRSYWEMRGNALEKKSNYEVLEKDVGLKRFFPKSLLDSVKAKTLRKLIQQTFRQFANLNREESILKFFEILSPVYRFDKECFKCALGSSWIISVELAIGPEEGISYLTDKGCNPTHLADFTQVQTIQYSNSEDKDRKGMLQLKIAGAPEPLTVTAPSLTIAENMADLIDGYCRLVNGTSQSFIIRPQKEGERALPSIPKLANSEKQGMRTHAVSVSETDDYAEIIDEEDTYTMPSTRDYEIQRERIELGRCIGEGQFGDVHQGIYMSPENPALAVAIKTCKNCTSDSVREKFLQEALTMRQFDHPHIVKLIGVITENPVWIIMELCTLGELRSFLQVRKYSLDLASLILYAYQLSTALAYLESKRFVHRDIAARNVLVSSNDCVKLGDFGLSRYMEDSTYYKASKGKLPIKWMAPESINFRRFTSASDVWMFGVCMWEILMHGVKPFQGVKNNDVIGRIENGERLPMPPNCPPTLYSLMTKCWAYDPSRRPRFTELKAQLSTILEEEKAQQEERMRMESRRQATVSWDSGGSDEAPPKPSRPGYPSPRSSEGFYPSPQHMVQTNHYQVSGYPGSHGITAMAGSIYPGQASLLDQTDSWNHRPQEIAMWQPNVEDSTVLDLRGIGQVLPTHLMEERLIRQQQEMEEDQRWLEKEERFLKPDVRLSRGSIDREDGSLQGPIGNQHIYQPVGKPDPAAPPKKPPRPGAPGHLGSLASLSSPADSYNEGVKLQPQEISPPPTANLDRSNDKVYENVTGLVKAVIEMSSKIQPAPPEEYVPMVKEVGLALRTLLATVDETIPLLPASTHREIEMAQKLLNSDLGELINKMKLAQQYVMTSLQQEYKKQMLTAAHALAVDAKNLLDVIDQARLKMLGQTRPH
T4 sequence (Q9Y2H1 whole entry): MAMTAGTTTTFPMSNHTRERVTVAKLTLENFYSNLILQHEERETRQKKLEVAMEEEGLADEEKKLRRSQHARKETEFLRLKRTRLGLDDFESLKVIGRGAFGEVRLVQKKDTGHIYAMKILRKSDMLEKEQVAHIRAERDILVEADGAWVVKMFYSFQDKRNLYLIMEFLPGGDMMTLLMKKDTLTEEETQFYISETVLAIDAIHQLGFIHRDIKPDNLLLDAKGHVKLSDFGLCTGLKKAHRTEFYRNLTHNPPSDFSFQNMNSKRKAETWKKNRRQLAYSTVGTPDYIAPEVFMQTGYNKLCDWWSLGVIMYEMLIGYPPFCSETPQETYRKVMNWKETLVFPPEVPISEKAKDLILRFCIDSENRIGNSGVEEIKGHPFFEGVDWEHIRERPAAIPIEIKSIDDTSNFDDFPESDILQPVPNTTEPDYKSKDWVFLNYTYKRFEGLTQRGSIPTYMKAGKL
T5 sequence (Q15208 whole entry): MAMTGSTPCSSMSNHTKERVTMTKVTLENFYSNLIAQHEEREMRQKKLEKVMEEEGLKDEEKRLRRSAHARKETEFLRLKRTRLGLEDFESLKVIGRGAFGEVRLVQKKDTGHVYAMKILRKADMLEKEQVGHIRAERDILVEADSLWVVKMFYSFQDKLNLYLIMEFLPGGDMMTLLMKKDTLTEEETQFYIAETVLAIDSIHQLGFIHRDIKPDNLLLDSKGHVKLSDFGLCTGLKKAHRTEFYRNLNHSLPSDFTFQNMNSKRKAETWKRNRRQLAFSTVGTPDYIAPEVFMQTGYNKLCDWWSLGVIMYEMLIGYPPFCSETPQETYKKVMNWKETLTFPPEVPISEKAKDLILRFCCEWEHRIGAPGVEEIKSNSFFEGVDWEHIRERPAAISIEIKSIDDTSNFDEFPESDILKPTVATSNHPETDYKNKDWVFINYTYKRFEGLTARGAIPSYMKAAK

With `Cc1ccc(C(=O)Nc2ccc(CN3CCN(C)CC3)c(C(F)(F)F)c2)cc1C#Cc1cnc2c(Nc3cnn(C)c3)cccn12` [Example 1, 4-methyl-3-((8-((1-methyl-1H-pyrazol-4-yl)amino)imidazo[1,2-a]pyridin-3-yl)ethynyl)-N-(4-((4-methylpiperazin-1-yl)methyl)-3-(trifluoromethyl)phenyl)benzamide], the remaining binding at 1 µM is 3% in test [1]; 1% in test [2]; 13% in test [3]; 23% in test [4]; 56% in test [5]; 39% in test [6]. For the same molecule, the remaining binding at 1 µM was 5% in test [7] and 99% in test [8].
Consider `Cc1ccc(NC(=O)C2(C(=O)Nc3ccc(F)cc3)CC2)cc1C#Cc1cnc2c(Nc3cnn(C(C)C)c3)cccn12` [Example 78], for which the remaining binding at 1 µM is 96% in test [1]; 99% in test [2]; 100% in test [3]; 98% in test [4]; 83% in test [5]; 96% in test [6]. For the same molecule, the remaining binding at 1 µM in test [7] was determined as 85%; in test [8], 100%.
As to `Cc1cn(-c2cc(NC(=O)c3ccc(C)c(C#Cc4cnc5c(Nc6cnn(C)c6)cccn45)c3)cc(C(F)(F)F)c2)cn1` [Example 12, 4-methyl-N-(3-(4-methyl-1H-imidazol-1-yl)-5-(trifluoromethyl)phenyl)-3-((8-((1-methyl-1H-pyrazol-4-yl)amino)imidazo[1,2-a]pyridin-3-yl)ethynyl)benzamide], the remaining binding at 1 µM in test [1] is 34%; in test [2], 4%; in test [3], 100%; in test [4] it was 84%; in test [5], 98%; in test [6], 10%. For the same molecule, the remaining binding at 1 µM in test [7] worked out at 100%; in test [8], 87%.
